The values below come from patent US7635686B2, “Therapeutically useful triethyleneglycol cholesteryl oligonucleotides” (Bioniche Life Sciences, Inc., priority 2001, dated 2009).

In data set [1] the test system is EL-4 cells. The data set can be described thus: Activation of caspase 3 in EL-4 cells (PE-antibody flow cytometry). It is filed as cell-based, murine. Particulars: 53 μM, 72 hrs; for Percentage of cells containing activated caspase-3: EL-4 cells, untreated 3. On the procedure:
EL-4 cells (2.5×10^5 cells/ml) were incubated for 72 hrs with 0 μM (control), 53 μM of SEQ ID NO:3 or 53 μM of SEQ ID NO:7. After incubation, both control and treated cells were washed, fixed, permeabilized and incubated with a Phycoerythrin (PE)-conjugated antibody that recognizes the active catalytic unit of caspase 3 (Clone: C92-605; BD Pharmingen, San Diego, Calif., USA) using the conditions recommended by the manufacturer. Fluorescence associated with active caspase 3 was analyzed by flow cytometry on a FACSCALIBUR using the program CellQUEST (both from Becton Dickinson, San Jose, Calif., USA).

The test system of the next data set is MCF-7 cells. The data set can be described thus: Treatment of pre-formed 3-dimensional MCF-7 structures on MATRIGEL
It is filed as cell-based, human. Particulars: MCF-7, 53 μM, repeated every 3-4 days up to 19-20 days, FIG. 3. On the procedure: MCF-7 cells were cultured in regular culture medium (RCM), trypsinized and counted. 150×10^3 of MCF-7 cells, in wells of 24-well plates coated with 350 μl of MATRIGEL®. After the formation of 3-dimensional structures during 48 hrs without any treatment, the medium was changed and the structures were exposed to a final concentration of 53 μM of SEQ ID NO:3, 53 μM of SEQ ID NO:7, 53 μM of cholesteryl-TEG phosphoramidite, RCM or their respective control media (RCM with water, RCM with DMSO, or RCM with acetonitrile). The treatments were repeated every 3-4 days until a maximum time in culture of 19-20 days. The experiment was repeated three times. Digital photographs of the cells in the 24-well plates were taken using a Nikon Coolpix 990 digital camera connected to a Nikon inverted microscope model TMS.

In data set [2] the test system is MDA-MB-231 (MDA-231) cells. Briefly: Treatment of pre-formed 3-dimensional MDA-231 structures on MATRIGEL
It is filed as cell-based, human. To be noted: MDA-231, 53 μM, repeated every 3-4 days up to 17-21 days, FIG. 4. On the procedure:
The MDA-MB-231 (MDA-231) cells were cultured in regular culture medium, trypsinized and counted. 100×10^3 of MDA-231 cells were plated in regular culture medium (RCM), in wells of 24-well plates coated with 350 μl of MATRIGEL®. After the formation of 3-dimensional structures during 48 hrs without any treatment, the medium was changed, and structures were exposed to a final concentration of 53 μM of SEQ ID NO:3, 53 μM of SEQ ID NO:7, 53 μM of cholesteryl-TEG phosphoramidite, RCM, or their respective control media (RCM with water, RCM with DMSO or RCM with acetonitrile). The treatments were repeated every 3-4 days until a maximum time in culture of 17-21 days. The experiment was repeated three times. Digital photographs of the cells in the 24-well plates were taken using a Nikon Coolpix 990 digital camera connected to a Nikon inverted microscope model TMS.

The test system of data set [3] is EL-4 cells. Briefly: Cleavage of poly(ADP-ribose) polymerase in EL-4 cells (FITC-antibody flow cytometry). It is filed as cell-based, murine. Particulars: 53 μM, 72 h; for Percentage of cells containing cleaved PARP: EL-4 cells, untreated 1. On the procedure: EL-4 cells (2.5×10^5 cells/ml) were incubated for 72 h with 0 μM (control), 53 μM of SEQ ID NO:3 or 53 μM of SEQ ID NO:7. After incubation, both control and treated cells were washed, fixed, permeabilized and incubated with an FITC-conjugated antibody that recognizes specifically the 85 kDa fragments of cleaved PARP (BioSource, Camarillo, Calif., USA) using the conditions recommended by the manufacturer. Fluorescence associated with cleaved PARP was analyzed by flow cytometry on a FACSCalibur using the program CellQUEST (both from Becton Dickinson). The percentage of cells containing cleaved PARP in EL-4 cells treated with 53 μM final concentration of sequences is shown in Table 5.

The subject of data set [4] is MDA-MB-231 (MDA-231) cells. Briefly: Cellular proliferation of MDA-231 cells (Trypan blue exclusion count). It is filed as cell-based, human. To be noted: MDA-231, 53 μM; for Effect on cellular proliferation (in words): 72 hrs; for Percentage of changes in cellular proliferation compared to controls (mean ± s.d.): cultured for 3 days, + stimulation, − inhibition, three independent assays. On the procedure:
(§1) Either 20×10^3 MDA-MB-231 (MDA-231) or Hs578T cells were plated into individual wells of 24-well plates in regular culture medium (RCM) presence or absence (control) of 53 μM (final concentration) of SEQ ID NO:3, SEQ ID NO:7, 53 μM cholesteryl-TEG phosphoramidite, or corresponding control media (regular culture medium (RCM) for SEQ ID NO:3, RCM with the same amount of water as the amount added with the SEQ ID NO:7, and RCM with the same amount of acetonitrile as the amount added with cholesteryl-TEG phosphoramidite). Cells were cultured for 72 hrs, removed with trypsin and counted with an hemocytometer using the Trypan blue exclusion technique. Results of three independent assays (mean and standard deviation (s.d.) of percentage of changes compared to controls) are shown in Table 9.

Data set [5] has as its system Hs578T cells. The data set can be described thus: Cell cycle progression in Hs578T multicellular spheroids (PI staining). It is filed as cell-based, human. To be noted: 53 μM, 72 hrs, FIG. 5. On the procedure:
Multicellular spheroids (MS) is an example of a special in vitro assay, in which tumor cells are cultured in a 3-dimensional manner to form a “tumor-like” structure. In this system, there is a reinforcement of cell-cell interactions that mimic microenvironmental conditions of malignant cells in solid tumors in vivo. In this type of assay, no extracellular matrix components are added. Cells cultured in this MS system differ from those in 2-dimensional systems (monolayer culture conditions). Some of these differences are related to structural and functional differentiation of tumor cells, changes in the cell cycle of tumor cells, “multicellular drug resistance”, and changes in the diffusion and penetration of drugs throughout layers of tumor cells (reviewed in Green et al., Anticancer Drug Des. 14:153, 1999).
About 100×10^3 Hs578T cells per spheroid were cultured in presence of 53 μM final concentration of SEQ ID NO:3, SEQ ID NO:7, 53 μM final concentration of cholesteryl-TEG phosphoramidite (cholTEG) or corresponding control media (regular culture medium (RCM), RCM with the same amount of water (RCMW) as the amount added with the SEQ ID NO:7, and RCM with the same amount of acetonitrile (RCMA) as the amount added with cholesteryl-TEG phosphoramidite). Five spheroids per each experimental condition were cultured for 72 hrs. Afterwards, cell cycle progression was evaluated by propidium iodide (PI) staining (Calbiochem, Novabiochem Corporation, San Diego, Calif.) using a FACScalibur flow cytometer (Becton Dickinson, Franklin Lakes, N.J.). Changes in the percentage of cells in the different phases of the cell cycle were analyzed using MODFIT LT software (Verity Software House Inc).

The subject of data set [6] is Hs578T cells. The data set can be described thus: Cellular proliferation of Hs578T cells (Trypan blue exclusion count). It is filed as cell-based, human. To be noted: 53 μM; for Effect on cellular proliferation (in words): 72 hrs; for Percentage of changes in cellular proliferation compared to controls (mean ± s.d.): cultured for 3 days, + stimulation, − inhibition, three independent assays. On the procedure: as §1

{TEG-Chol} = cholesteryl attached through a triethylene glycol (TEG) linker

On to “5′ OH-CCACCC(TEG-cholesteryl) 3′ (3' {TEG-Chol}, sugars by position and backbone not given here) [SEQ ID NO:7]”, for which, in the data set with EL-4 cells [1], the “Activation of caspase-3 in EL-4 cells (in words)” value is reported as “capacity to induce apoptosis as measured by the activation of caspase-3” and the “Percentage of cells containing activated caspase-3” value came to 38%. Besides, the “Effect on pre-formed 3-dimensional structures on MATRIGEL” value (from here on “Effect … on MATRIGEL”) in the data set with MCF-7 cells is on record as “disrupted the growth pattern of the structures”. Further, the “Effect … on MATRIGEL” value in data set [2] is listed as “disrupted the growth pattern of the structures”. Further, in the data set with EL-4 cells [3], the “Cleavage of PARP in EL-4 cells (in words)” value was “capacity to induce apoptosis as measured by cleavage of PARP” and the “Percentage of cells containing cleaved PARP” value is 84%. In data set [4], the “Effect on cellular proliferation (in words)” value (“Effect … (in words)” for short) was “capacity to inhibit cellular proliferation” and the “Percentage of changes in cellular proliferation compared to controls (mean ± s.d.)” value (shortened to “Percentage of changes”) is recorded as −97.9 ± 2.5%. Besides, the “Cell cycle progression in multicellular spheroids” value with Hs578T cells [5] is “increased the percentage of cells in G2M and S-phase and decrease the percentage of cells in G0/G1”. In addition, in the data set on Hs578T cells [6], the “Effect … (in words)” value is recorded as “capacity to inhibit cellular proliferation” and the “Percentage of changes” value is reported as −91.8 ± 10.5%.
“5′ OH-CCACCC-OH 3′ (listed as DNA, chemistry not fully specified) [SEQ ID NO:3]”: in the data set with EL-4 cells [1], the “Activation of caspase-3 in EL-4 cells (in words)” value was “inactive” and the “Percentage of cells containing activated caspase-3” value is 4%. Moreover, the “Effect … on MATRIGEL” value in the data set with MCF-7 cells is reported as “did not affect the 3-dimensional structures”. Also, the “Effect … on MATRIGEL” value in data set [2] was “did not affect the 3-dimensional structures”. In the data set with EL-4 cells [3], the “Cleavage of PARP in EL-4 cells (in words)” value was “inactive” and the “Percentage of cells containing cleaved PARP” value stood at 1%. Moreover, in data set [4], the “Effect … (in words)” value is on record as “did not significantly affect cellular proliferation” and the “Percentage of changes” value is “+6.9 ± 5%”. Besides, the “Cell cycle progression in multicellular spheroids” value with Hs578T cells [5] is reported as “did not significantly modify cell cycle progression”. Also, in the data set on Hs578T cells [6], the “Effect … (in words)” value is recorded as “did not significantly affect cellular proliferation” and the “Percentage of changes” value is given as −6.5 ± 5%.
